One test deals with E. coli. As to the kind of experiment: Food contact sanitizing efficacy (AOAC Method 960.09). It counts as cell-based. Conditions: pH adjusted to 2.1 with phosphoric acid, 30 seconds exposure. The procedure: (§1) Additional testing to confirm food contact sanitizing efficacy (AOAC Method 960.09) comparing three AEC surfactants was conducted where the surfactants were diluted in 500 ppm synthetic hard water and pH adjusted to 2.1 with phosphoric acid. The evaluated AEC surfactants are further described above in Table 2.

The test system of a further test is S. aureus. The description is as above. It counts as cell-based. The conditions noted are these: pH adjusted to 2.1 with phosphoric acid, 30 seconds exposure. The procedure: as §1
Where [1] appears, read: 500 ppm surfactant in 500 ppm synthetic hard water.
Setting [2] is: 750 ppm surfactant in 500 ppm synthetic hard water.
Where [3] appears, read: 1000 ppm surfactant in 500 ppm synthetic hard water.

The source of these data is patent US20240349720A1, “ANTIMICROBIAL COMPOSITIONS COMPRISING ALKYL ETHER CARBOXYLIC ACIDS AND METHODS OF USE THEREOF” (ECOLAB USA INC., priority 2023, published 2024).

Consider Capryleth-4 Carboxylic acid, for which the “Log reduction E. coli” value in the test with E. coli (setting [1]), with E. coli (setting [2]) and with E. coli (setting [3]) was above 7.59 log in each case. Moreover, the “Log reduction S. aureus” value with S. aureus (setting [1]), in the test with S. aureus (setting [2]) and in the test on S. aureus (setting [3]) was above 7.34 log in each case.

Turning to Capryleth-6 Carboxylic acid, the “Log reduction E. coli” value in the test with E. coli (setting [1]) is reported as 1.98 log; in the test with E. coli (setting [2]) it was 3.44 log; with E. coli (setting [3]), above 7.59 log. The “Log reduction S. aureus” value in the test with S. aureus (setting [1]), in the test with S. aureus (setting [2]) and in the test with S. aureus (setting [3]) was above 7.34 log each time.

In the case of Capryleth-9 Carboxylic acid, the “Log reduction E. coli” value in the test with E. coli (setting [1]), with E. coli (setting [2]) and in the test on E. coli (setting [3]) was below 1.19 log each time. In addition, the results for the “Log reduction S. aureus” value in the test on S. aureus (setting [1]), in the test with S. aureus (setting [2]) and in the test on S. aureus (setting [3]) were 5.31 log, above 7.34 log and above 7.34 log, respectively.
